The source of these data is patent US6472526B1, “Imidazole derivatives having an inhibitory activity for farnesyl transferase and process for preparation thereof” (LG Chemical Ltd., priority 1997, dated 2002).

Bounds are passed on as bounds.

Assay [1] has as its target T1, Ras farnesyl transferase (Homo sapiens, UniProt P49354+P49356).
T1 construct: made in house
In words: In vitro inhibitory activity for Ras farnesyl transferase, H-Ras substrate. Type of assay: biochemical. The conditions noted are these: recombinant farnesyl transferase 4.5 nM, Ras substrate protein 1.5 μM, tritium-farnesylpyrophosphate 0.15 μM, 30 minutes at 37° C.; read-out: H-Ras IC50.

For assay [2], the target named is T1, Ras farnesyl transferase. In words: In vitro inhibitory activity for Ras farnesyl transferase, K-Ras substrate. Type of assay: biochemical. As to conditions: in vitro farnesyl transferase assay, K-Ras; read-out: K-Ras IC50.
The target in assay [3] is T2, Ras farnesyl transferase (Rattus norvegicus, UniProt Q02293+Q04631).
T2 construct: endogenous in cells; host or cells: Rat2 fibroblasts transformed with H-Ras or with an H-Ras/K-Ras C-terminus fusion
The assay can be described thus: In vivo (cellular) inhibitory activity for Ras farnesyl transferase, Rat2 cell line which expresses C-Harvey-Ras protein. In kind it is cell-based. The conditions noted are these: Rat2 cell line expressing C-Harvey-Ras; concentration inhibiting 50% of farnesyl bonding of Ras protein; read-out: H-Ras CIC50. A digest of the protocol: (§1)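 Farnesylated versus unfarnesylated Ras bands were measured by autoradiography after Y13-259 immunoprecipitation and SDS-PAGE, giving CIC50 as 50% inhibition of farnesylation. Rat2 cells expressing H-Ras or an H-Ras fusion with K-Ras polybasic C-terminus got compound (1% DMSO), then [35S]methionine from 4 h onward for 20 h.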

In assay [4] the target is T2, Ras farnesyl transferase. The assay can be described thus: In vivo (cellular) inhibitory activity for Ras farnesyl transferase, Rat2 cell line transformed with fused protein of H-Ras substituted with polybasic lysine domain at C-terminus of K-Ras. In kind it is cell-based. As to conditions: Rat2 cell line transformed with H-Ras fused with polybasic lysine domain of K-Ras C-terminus; concentration inhibiting 50% of farnesyl bonding; read-out: K-Ras CIC50. The method in brief: as §1

Turning to `CSCC[C@H](NC(=O)c1cn(Cc2cncn2Cc2ccc(C#N)cc2)cc1-c1cccc2ccccc12)C(=O)O` [Compound 101, (S)-1-[1-(4-Cyanobenzyl)-1H-imidazol-5-yl]methyl-3-[N-(1-hydroxycarbonyl-3-methylthio)propyl]carbamoyl-4(naphthalen-1-yl)-1H-pyrrole], the IC50 in assay [1] is 10 nM; in assay [2], 800 nM; in assay [3], greater than 5000 nM; in assay [4] it was greater than 50000 nM.

Take `COC(=O)[C@H](CC(C)C)NC(=O)c1cn(Cc2cncn2Cc2ccc(C#N)cc2)cc1-c1cccc2ccccc12` [Compound 102]: the IC50 in assay [1] was 450 nM; in assay [2], 22000 nM; in assay [3], 1000 to 50000 nM; in assay [4], greater than 50000 nM.

With `CC(C)C[C@H](NC(=O)c1cn(Cc2cncn2Cc2ccc(C#N)cc2)cc1-c1cccc2ccccc12)C(=O)O` [Compound 103], the IC50 was 64 nM in assay [1], 1700 nM in assay [2], 100 to 10000 nM in assay [3] and 10000 to 100000 nM in assay [4].

As to `N#Cc1ccc(Cn2cncc2Cn2cc(C(=O)N3CCOCC3)c(-c3cccc4ccccc34)c2)cc1` [Compound 104], the IC50 is 0.5 nM in assay [1], 6 nM in assay [2], less than 50 nM in assay [3] and less than 10000 nM in assay [4].

For `CN1CCN(C(=O)c2cn(Cc3cncn3Cc3ccc(C#N)cc3)cc2-c2cccc3ccccc23)CC1` [Compound 105], the IC50 in assay [1] is 0.4 nM; in assay [2] it was 90 nM; in assay [3], 50 nM; in assay [4], greater than 50000 nM.

Regarding `O=C(c1cn(CCn2ccnc2)cc1-c1cccc2ccccc12)N1CCOCC1` [Compound 106], the IC50 in assay [1] is 900 nM; in assay [2], 10000 to 100000 nM; in assay [3], 1000 to 50000 nM; in assay [4], 10000 to 100000 nM.

In the case of `COC(=O)[C@H](CCSC)NC(=O)c1cn(CCCc2c[nH]cn2)cc1-c1cccc2ccccc12` [Compound 107, (S)-1-[3-(1H-Imidazol-4-yl)propyl]-3-[1N-(1-methoxycarbonyl-3-methylthio)propyl]carbamoyl-4-(naphthalen-1-yl)-1H-pyrrole], the IC50 is 10000 nM in assay [1], 100 to 10000 nM in assay [2], 1000 to 50000 nM in assay [3] and 10000 to 100000 nM in assay [4].

In the case of `CSCC[C@H](NC(=O)c1cn(CCCc2c[nH]cn2)cc1-c1cccc2ccccc12)C(=O)O` [Compound 108], the IC50 in assay [1] is 260 nM; in assay [2] it was 100 to 10000 nM; in assay [3] it was 1000 to 50000 nM; in assay [4] it was 10000 to 100000 nM.

On to `O=C(c1cn(CCCc2c[nH]cn2)cc1-c1cccc2ccccc12)N1CCOCC1` [Compound 109], for which the IC50 in assay [1] was 8600 nM; in assay [2], 1000 to 50000 nM; in assay [3] it was 1000 to 50000 nM; in assay [4], 10000 to 100000 nM.

Turning to `COCCN(C)C(=O)c1cn(Cc2cncn2Cc2ccc(Br)cc2)cc1-c1cccc2ccccc12` [Compound 111, 1-[1-(4-Bromobenzyl)-1H-imidazol-5-yl]methyl-3-[N-(2-methoxyethyl)-N-methyl]carbamoyl-4-(naphthalen-1-yl)-1H-pyrrole], the IC50 in assay [1] stood at 2 nM; in assay [2], 2 nM; in assay [3], 30 nM; in assay [4] it was 4000 nM.

`N#Cc1ccc(Cn2cncc2Cn2cc(C(=S)N3CCOCC3)c(-c3cccc4ccccc34)c2)cc1` [Compound 113, 1-[1-(4-Cyanobenzyl)-1H-imidazol-5-yl]methyl-3-(morpholin-4-yl)thiocarbonyl-4-(naphthalen-1-yl)-1H-pyrrole]: the IC50 in assay [1] was 4 nM; in assay [2], less than 100 nM; in assay [3] it was less than 100 nM; in assay [4], 10000 to 100000 nM.

For `COCCN(C)C(=O)c1cn(Cc2cncn2C)cc1-c1cccc2ccccc12` [Compound 114, 3-[N-(2-Methoxyethyl)-N-methyl]carbamoyl-1-(1-methyl-1H-imidazol-5-yl)methyl-4-(naphthalen-1-yl)-1H-pyrrole], the IC50 was 1 nM in assay [1], 100 nM in assay [2], 15 nM in assay [3] and less than 100000 nM in assay [4].

As to `COCCN(C)C(=O)c1cn(Cc2cncn2CC(C)C)cc1-c1cccc2ccccc12` [Compound 115, 1-(1-Isobutyl-1H-imidazol-5-yl)methyl-3-[N-(2-methoxyethyl)-N-methyl]carbamoyl-4-(naphthalen-1-yl)-1H-pyrrole], the IC50 in assay [1] was 2 nM; in assay [2] it was 35 nM; in assay [3] it was 25 nM; in assay [4], less than 50000 nM.

Regarding `COCCN(C)C(=O)c1cn(Cc2cncn2CC2CCCCC2)cc1-c1cccc2ccccc12` [Compound 116, 1-(1-Cyclohexylmethyl-1H-imidazol-5-yl)methyl-3-[N-(2-methoxyethyl)-N-methyl]carbamoyl-4-(naphthalen-1-yl)-1H-pyrrole], the IC50 is 4 nM in assay [1], 62 nM in assay [2], 30 nM in assay [3] and less than 50000 nM in assay [4].

For the molecule `CN1CCN(C(=O)c2cn(Cc3cncn3Cc3ccc(Br)cc3)cc2-c2cccc3ccccc23)CC1` [Compound 125, 1-[1-(4-Bromobenzyl)-1H-imidazol-5-yl]methyl-3-[4-methylpiperazin-1-yl]carbonyl-4-(naphthalen-1-yl)-1H-pyrrole], the IC50 in assay [1] came to 2 nM; in assay [2], 4 nM; in assay [3], 6 nM; in assay [4] it was 4000 nM.

Turning to `CN1CCN(C(=O)c2cn(Cc3cncn3Cc3ccc(Cl)cc3)cc2-c2cccc3ccccc23)CC1` [Compound 126, 1-[1-(4-Chlorobenzyl)-1H-imidazol-5-yl]methyl-3-[4-methylpiperazin-1-yl]carbonyl-4-(naphthalen-1-yl)-1H-pyrrole], the IC50 is 1 nM in assay [1], 4 nM in assay [2], 12 nM in assay [3] and 5000 nM in assay [4].

As to `COCCN(C)C(=O)c1cn(Cc2cncn2Cc2ccc(F)cc2)cc1-c1cccc2ccccc12` [Compound 127, 1-[1-(4-fluorobenzyl)-1H-imidazol-5-yl]methyl-3[N-(2-methoxyethyl)-N-methyl]carbamoyl-4-(naphthalen-1-yl)-1H-pyrrole], the IC50 in assay [1] was found to be 2 nM; in assay [2], 5 nM; in assay [3], 15 nM; in assay [4] it was 5000 nM.

For `CN1CCN(C(=O)c2cn(Cc3cncn3Cc3ccc(F)cc3)cc2-c2cccc3ccccc23)CC1` [Compound 128, 1-[1-(4-fluorobenzyl)-1H-imidazol-5-yl]methyl-3-[4-methylpiperazin-1-yl]carbonyl-4-(naphthalen-1-yl)-1H-pyrrole], the IC50 in assay [1] was determined as 2 nM; in assay [2] it was 10 nM; in assay [3], 10 nM; in assay [4], 5000 nM.

For the molecule `COc1ccc(Cn2cncc2Cn2cc(C(=O)N3CCN(C)CC3)c(-c3cccc4ccccc34)c2)cc1` [Compound 130, 1-[1-(4-Methoxybenzyl)-1H-imidazol-5-yl] methyl-3-(4-methylpiperazin-1-yl)carbonyl-4-(naphthalen-1-yl)-1H-pyrrole], the IC50 is 2 nM in assay [1], 3 nM in assay [2], 25 nM in assay [3] and 10000 to 50000 nM in assay [4].

Regarding `CN1CCN(C(=O)c2cn(Cc3cncn3Cc3cccc(Cl)c3)cc2-c2cccc3ccccc23)CC1` [Compound 131, 1-[1-(3-Chlorobenzyl)-1H-imidazol-5-yl]methyl-3-(4-methylpiperazin-1-yl)carbonyl-4-(naphthalen-1-yl)-1H-pyrrole], the IC50 is 1 nM in assay [1], 2.3 nM in assay [2], 12.5 nM in assay [3] and 10000 to 50000 nM in assay [4].

`COCCN(C)C(=O)c1cn(Cc2cncn2Cc2cccc(Cl)c2)cc1-c1cccc2ccccc12` [Compound 132, 1-[1-(3-Chlorobenzyl)-1H-imidazol-5-yl]methyl-3-[N-(2-methoxyethyl)-N-methyl]carbamoyl-4-(naphthalen-1-yl)-1H-pyrrole]: the IC50 in assay [1] is 3.5 nM; in assay [2], 11 nM; in assay [3], 25 nM; in assay [4], 10000 to 50000 nM.

For `CN1CCN(C(=O)c2cn(Cc3cncn3Cc3ccccc3Cl)cc2-c2cccc3ccccc23)CC1` [Compound 133, 1-[1-(2-Chlorobenzyl)-1H-imidazol-5-yl]methyl-3-(4-methylpiperazin-1-yl)carbonyl-4-(naphthalen-1-yl)-1H-pyrrole], the IC50 was 0.65 nM in assay [1], 2 nM in assay [2], 25 nM in assay [3] and 10000 to 50000 nM in assay [4].

As for `COCCN(C)C(=O)c1cn(Cc2cncn2Cc2ccccc2Cl)cc1-c1cccc2ccccc12` [Compound 134, 1-[1-(2-Chlorobenzyl)-1H-imidazol-5-yl]methyl-3-[N-(2-methoxyethyl)-N-methyl]carbamoyl-4-(naphthalen-1-yl)-1H-pyrrole], the IC50 in assay [1] was 2.7 nM; in assay [2] it was 2 nM; in assay [3], 25 nM; in assay [4], 10000 to 50000 nM.
